Data as given in PubChem BioAssay AID1919014 (Molecular Pharmacology Branch, DTP, NCI, 2023).

Tested on: NCI-H1341 complex spheroids, percent test/control
Assay: Anticancer human tumor NCI-H1341 cell line growth inhibition [AhR];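 also: spheroids exposed to agents for seven days before readout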
Conditions: for IC50: curve of first compound; for viability, T/C: stronger effect = lower value
How it was run: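 Complex tumor spheroids co-cultured with HUVEC and human MSC stroma; AhR antagonists tested in combination with standard-of-care and investigational agents. Top concentration at or near clinical Cmax (else 10 microM), half-log dilutions; growth expressed as percent test/control.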

[1] = second compound 0.1 µM, first compound 0.0316 µM
[2] = second compound 0.1 µM, first compound 0.1 µM
[3] = second compound 0.1 µM, first compound 0.316 µM
[4] = second compound 0.1 µM, first compound 1 µM
[5] = second compound 0.316 µM, first compound 0.0316 µM
[6] = second compound 0.316 µM, first compound 0.1 µM
[7] = second compound 0.316 µM, first compound 0.316 µM
[8] = second compound 0.316 µM, first compound 1 µM
[9] = second compound 1 µM, first compound 0.0316 µM
[10] = second compound 1 µM, first compound 0.1 µM
[11] = second compound 1 µM, first compound 0.316 µM
[12] = second compound 1 µM, first compound 1 µM
[13] = second compound 3.16 µM, first compound 0.0316 µM
[14] = second compound 3.16 µM, first compound 0.1 µM
[15] = second compound 3.16 µM, first compound 0.316 µM
[16] = second compound 3.16 µM, first compound 1 µM
[17] = second compound 10 µM, first compound 0.0316 µM
[18] = second compound 10 µM, first compound 0.1 µM
[19] = second compound 10 µM, first compound 0.316 µM
[20] = second compound 10 µM, first compound 1 µM

IC50 (second compound 0.1 µM) [nM]	IC50 (second compound 0.316 µM) [nM]	IC50 (second compound 1 µM) [nM]	IC50 (second compound 3.16 µM) [nM]	IC50 (second compound 10 µM) [nM]	Compound	viability, T/C [1] [%]	viability, T/C [2] [%]	viability, T/C [3] [%]	viability, T/C [4] [%]	viability, T/C [5] [%]	viability, T/C [6] [%]	viability, T/C [7] [%]	viability, T/C [8] [%]	viability, T/C [9] [%]	viability, T/C [10] [%]	viability, T/C [11] [%]	viability, T/C [12] [%]	viability, T/C [13] [%]	viability, T/C [14] [%]	viability, T/C [15] [%]	other results
< 31.6	< 31.6	249	< 31.6	< 31.6	COc1cc(Nc2ncc3c(n2)-c2ccc(Cl)cc2C(c2c(F)cccc2OC)=NC3)ccc1C(=O)O + Cc1ccccc1N=Nc1ccc(NC(=O)c2ccnn2C)c(C)c1	48.9	45.1	42	31.9	50.6	46.3	48.5	39.2	56.2	55.3	48.3	40	47.7	48.1	39.5	viability, T/C (second compound 0.1 µM, first compound 3.16 µM): 29.9%; viability, T/C (second compound 0.1 µM, first compound 10 µM): 25.6%; viability, T/C (second compound 0.316 µM, first compound 3.16 µM): 30%; viability, T/C (second compound 0.316 µM, first compound 10 µM): 25.2%; viability, T/C (second compound 1 µM, first compound 3.16 µM): 31.4%; viability, T/C (second compound 1 µM, first compound 10 µM): 26%; viability, T/C [16]: 40.9%; viability, T/C (second compound 3.16 µM, first compound 3.16 µM): 25.3%; viability, T/C (second compound 3.16 µM, first compound 10 µM): 26.8%; viability, T/C [17]: 44%; viability, T/C [18]: 43.9%; viability, T/C [19]: 37.3%; viability, T/C [20]: 38.2%; viability, T/C (second compound 10 µM, first compound 3.16 µM): 27.3%; viability, T/C (second compound 10 µM, first compound 10 µM): 28.6%
97.6	60.6	113	67.5	9.13	CC1COCCN1c1cc(-c2ccnn2C)c2ccnc(-c3ccn[nH]3)c2n1 (stereo not given) + Cc1ccccc1N=Nc1ccc(NC(=O)c2ccnn2C)c(C)c1	74.2	48.5	38.3	26.2	65.6	39.3	34.8	29	70.8	52.6	34.3	25.9	55.1	44.4	40.8	viability, T/C (second compound 0.1 µM, first compound 0.00316 µM): 98.2%; viability, T/C (second compound 0.1 µM, first compound 0.01 µM): 99.1%; viability, T/C (second compound 0.316 µM, first compound 0.00316 µM): 104%; viability, T/C (second compound 0.316 µM, first compound 0.01 µM): 102%; viability, T/C (second compound 1 µM, first compound 0.00316 µM): 82.6%; viability, T/C (second compound 1 µM, first compound 0.01 µM): 92%; viability, T/C (second compound 3.16 µM, first compound 0.00316 µM): 84%; viability, T/C (second compound 3.16 µM, first compound 0.01 µM): 72.7%; viability, T/C [16]: 27.6%; viability, T/C (second compound 10 µM, first compound 0.00316 µM): 53.8%; viability, T/C (second compound 10 µM, first compound 0.01 µM): 51%; viability, T/C [17]: 44.3%; viability, T/C [18]: 37.1%; viability, T/C [19]: 30.7%; viability, T/C [20]: 25.6%
